Source: US11179348B2, “Combination comprising pterostilbene for the treatment of cancer” (FUNDACIÓN UNIVERSIDAD CATÓLICA DE VALENCIA SAN VICENTE …, priority 2015, dated 2021)

How the values were obtained:
[1] = test system: glucocorticoid receptors (GR); assay: GR content of human cancer cells by [3H]-labeled ligand whole-cell binding assay
[2] = test system: MCF-7 cells; assay: GSH levels and glutathione- and oxidative stress-related enzyme activities in MCF-7 cells growing in vivo; parameters: species or system human; conditions: MCF-7, in vivo Pter, day 28
Protocol: (§1) To measure enzyme activity, isolated tumor cells were homogenized in 0.1 M phosphate buffer (pH 7.2) at 4° C. GCL and GSS activities were measured as described previously (Obrador, E. et al. Hepatology 35, 74-81 (2002)). GPX (selenium dependent) activity was measured as described by Flohé and Gunzler (Flohe, L. & Gunzler, W. A. Methods Enzymol 105, 114-121 (1984)) using H2O2 as a substrate. GSR activity was determined as described by Akerboom and Sies (Akerboom, T. P. et al, Bull Eur Physiopathol Respir 17 Suppl, 221-227 (1981)). GGT activity was measured as described previously (Obrador, E. et al. Hepatology 35, 74-81 (2002)). GST activity was measured using an assay kit from Sigma. TXNRD activity, defined by the concentration of sodium-lipoate (disulfide) reduced to dehydrolipoate (dithiol) per milligram protein, was measured as previously described (Javvadi, P. et al. Cancer Res 70, 1941-1950 (2010)). SOD activity was measured as described by Flohé and Otting (Flohe, L. & Otting, F. Methods Enzymol 105, 93-104 (1984).) using 2 mM cyanide in the assay medium to distinguish mangano-type enzyme (SOD2) from the cuprozinc type (SOD1). CAT activity was analyzed as described by Aebi (Aebi, H. Methods Enzymol 105, 121-126 (1984)). NOX activity was measured by chemiluminescence following the methodology of Wind et al. (Wind, S. et al. Comparative pharmacology of chemically distinct NADPH oxidase inhibitors. Br J Pharmacol 161, 885-898 (2010)). Protein concentration was determined with the Pierce BCA protein assay (Fisher Scientific, Waltham, Mass.).
(§2) GSH, GSSG, NADP^+ and NADPH Determination.
(§3) GSH and GSSG were determined, following procedures previously described (Obrador, E. et al. PLoS One 9, e96466 (2014)), by LC/MS using the same equipment described above for pterostilbene determination. Cell processing was performed according to published methodology, where rapid N-ethylmaleimide derivatization was used to prevent GSH auto-oxidation (Asensi, M. et al. Anal Biochem 217, 323-328 (1994)). NADP^+ and NADPH were quantitated using an assay kit from Sigma (St. Louis, Mo.).
(§4) Isolation of Tumor Cells from Mouse Xenografts Using Enzymatic Digestion and a double Ficoll gradient.
(§5) To maximize the amount of isolated cells, avoiding the use of RFP-transfected cells and subsequent laser microdissection, an alternative methodology was set up. To maximize cell yield and viability the following combination of enzymes was used: collagenase III (200 U/ml; Sigma-Aldrich), DNase I (200 U/ml; Sigma-Aldrich) and trypsin (5 mg/ml; Invitrogen), and a non-enzymatic dissociation buffer (NEDB, Invitrogen). Briefly, mice were killed, and tumors were removed (avoiding skin, muscle and fat) into cold culture media and processed immediately. The tumors were minced into 1-3 mm fragments, which were then incubated with the dissociation solution (see above) for 30 min at 37° C. The tumor fragments were mixed up and down every 10 min using a […] micropipette with a tip cut to a diameter adapted to tissue fragment size. After each incubation period, the fragments were filtered through a […] nylon mesh cell strainer (BD Biosciences, San Diego, Calif., USA). The released cells were centrifuged at 1200 r.p.m. for 2 min and stored in cold CO2-independent medium with 30% FCS at […]. Fresh dissociation solution was added to the remaining tissue fragments for 30 min. Dissociation was stopped when no additional cells were released. The fragments were pushed through a sieve and all cells from all incubation periods were pooled and counted.
(§6) The dissociated cells were layered onto a double Ficoll gradient (Histopaque; Sigma-Aldrich; densities 1.077 and 1.119) and spun at 700 g for 30 min at room temperature. Cells removed from both interfaces were pooled and washed two times in CO2-independent medium and stored at 4° C. Debris and red blood cell elimination was improved with the dual-density gradient. […]

[3] = test system: SK-OV-3 cells; assay: GSH levels and glutathione- and oxidative stress-related enzyme activities in SK-OV-3 cells growing in vivo; parameters: species or system human; conditions: SK-OV-3, in vivo Pter, day 49
Protocol: as §1, §2, §3, §4, §5, §6

What does the source list for `COc1cc(/C=C/c2ccc(O)cc2)cc(OC)c1` [Pter, trans-3,5-dimethoxy-4′-hydroxystilbene]?
GR number ([1]; A549, day 35): 41 ± 10 10^3 GR/cell; GR number (binding sites/cell) ([1]; A2058-RFP tumors, day 35): 71 ± 5 10^3 GR/cell; GR number (binding sites/cell) ([1]; AsPC-1-RFP tumors, day 28): 63 ± 10 10^3 GR/cell; GR number (binding sites/cell) ([1]; BxPC-3-RFP tumors, day 35): 115 ± 27 10^3 GR/cell; GR number ([1]; Caco-2, day 28): 7 ± 2 10^3 GR/cell; GR number ([1]; HT-29, day 21): 14 ± 3 10^3 GR/cell; GR number ([1]; HepG2, day 35): 45 ± 11 10^3 GR/cell; GR number ([1]; LNCaP, day 49): 3 ± 1 10^3 GR/cell; GR number ([1]; MCF-7, day 28): <1 10^3 GR/cell; GR number ([1]; MDA-MB-231, day 35): 18 ± 3 10^3 GR/cell; GR number (binding sites/cell) ([1]; MeWo-RFP tumors, day 35): 45 ± 6 10^3 GR/cell; GR number (binding sites/cell) ([1]; MelJuso-RFP tumors, day 35): 47 ± 4 10^3 GR/cell; GR number ([1]; PC-3, day 21): 21 ± 6 10^3 GR/cell; GR number ([1]; SK-OV-3, day 49): 25 ± 7 10^3 GR/cell; CAT [2]: 0.5 ± 0.2 mU/10^6 cells; GCL [2]: 166 ± 34 mU/10^6 cells; GSH [2]: 30.6 ± 4.2 nmol/10^6 cells; GSS [2]: 25.2 ± 5.6 mU/10^6 cells; GSSG [2]: 0.3 ± 0.1 nmol/10^6 cells; SOD1 [2]: 1.0 ± 0.08 U/10^6 cells; SOD2 [2]: 0.12 ± 0.05 U/10^6 cells; CAT [3]: 1.8 ± 0.4 mU/10^6 cells; GCL [3]: 18 ± 6 mU/10^6 cells; GSH [3]: 1.5 ± 0.7 nmol/10^6 cells; GSS [3]: 1.6 ± 0.4 mU/10^6 cells; GSSG [3]: 0.2 ± 0.05 nmol/10^6 cells; SOD1 [3]: 0.1 ± 0.03 U/10^6 cells; SOD2 [3]: 0.01 ± 0.005 U/10^6 cells
